As a reminder, the IC50 is the point on the concentration scale where inhibition reaches its midpoint.

The source of these data is patent US20090170804A1, “PIRFENIDONE/TOLL-LIKE RECEPTOR (TLR) AGONIST COMPOSITIONS AND METHODS FOR USING THEM TO STIMULATE PRODUCTION OF GRANULOCYTE COLONIZING STIMULATING FACTOR (G-CSF)” (priority 2005, published 2009).

Like-named read-outs stand apart in the source and are kept apart here.

Data set [1] deals with Human PBMCs. Briefly: LPS-mediated cytokine induction in human PBMCs (BioRad Multiplex Cytokine Platform). It counts as cell-based. The arrangement: TNF-α release in PBMCs (FIG. 9) / G-CSF release in PBMCs (FIG. 9): dose or concentration left out as unconfirmed. Particulars: for IC50: PBMC, 1 h pirfenidone pretreatment, LPS, optimal expression at 8 hours. How it is done: Human PBMCs (10^5 cells per well) were pretreated with pirfenidone (5 mM to 5 μM) for one hour in a 96-well plate and then stimulated with LPS ([…] to 0.01 ng/ml) for 1, 2, 8, or 24 hours at 37° C. Subsequently, cells were spun and supernatants collected and assayed for protein expression using the BioRad Multiplex Cytokine Platform, which enables 17 different cytokines to be analyzed simultaneously: G-CSF, GM-CSF, IFN-γ, IL-1β, IL-2, IL-4, IL-5, IL-6, IL-7, IL-8, IL-10, IL-12 (p70), IL-13, IL-17, MCP-1, MIP-1β, and TNF-α.

Data set [2] concerns Human PBMCs. Briefly: p38 inhibitors: TLR-agonist-mediated TNF-α and G-CSF release from human PBMCs. It counts as cell-based. Conditions: 1 h pretreatment, then LPS, Fibrin, LTA, PG or CpG for 24 hours. An excerpt:
The effect of various p38 inhibitors on LPS-mediated TNF-α and G-CSF release from human PBMCs was examined. Briefly, human PBMCs (10^5 cells per well) were pretreated with pirfenidone, a hydroxyl-pirfenidone derivative, SB202190 (commercially available p38 inhibitor), or SB203580 (commercially available p38 inhibitor) for one hour in a 96-well plate and then stimulated with lipopolysaccharide (LPS, binds TLR4), Fibrin (binds TLR4), lipoteichoic acid (LTA, binds TLR2), peptidoglycan (PG, binds TLR2), or CpG (bacterial DNA, binds TLR9) for 24 hours at 37° C. Subsequently, cells were spun and supernatants collected and assayed for G-CSF expression.
Each TLR agonist alone is set to 1 (positive control) and the subsequent release of G-CSF in the presence of p38 inhibitors is determined relative to the positive control.

The mark [3] stands for this setting: in the presence of pirfenidone (lmM).

For the compound `Cc1ccc(=O)n(-c2ccccc2)c1` [pirfenidone, 5-methyl-1-phenyl-2-(1H)-pyridone], the IC50 with Human PBMCs [1] (human PBMCs, read-out: pirfenidone IC50 for IL-1β (LPS-mediated cytokine induction)) is roughly 2500 µM. Further, the IC50 in the data set on Human PBMCs [1] (human PBMCs, read-out: pirfenidone IC50 for TNF-α (LPS-mediated cytokine induction)) is roughly 1000 µM. In the data set with Human PBMCs [1] (human PBMCs), the “LPS-mediated release of G-CSF” value is listed as “augmented”, the “LPS-mediated release of GM-CSF” value is on record as “inhibited”, the “LPS-mediated release of IFN-γ” value was “inhibited” and the “LPS-mediated release of IL-1β” value is given as “inhibited”. Further, in the data set with Human PBMCs [1] (human PBMCs), the “LPS-mediated release of IL-10” value is reported as “augmented”, the “LPS-mediated release of MCP-1” value is listed as “augmented”, the “LPS-mediated release of TNF-α” value is recorded as “inhibited” and the “constitutive (but not LPS-mediated) expression of IL-6” value is listed as “inhibited”. In the data set with Human PBMCs [1] (human PBMCs), the “constitutive (but not LPS-mediated) expression of IL-8” value was “inhibited” and the “constitutive (but not LPS-mediated) expression of MIP-1β” value is listed as “inhibited”. For the same compound, in the data set on Human PBMCs [1] (setting [3]), the “LPS-induced expression of G-CSF augmented by” value stood at 100% and the “LPS-induced expression of IL-10 augmented by” value is recorded as 35%. The “TNF-α expression in PBMCs (FIG. 1)” value in the data set on Human PBMCs [1] (pirfenidone 185 μg/mL and LPS 1 μg/mL) was “reduced”. In the data set with Human PBMCs [1] (pirfenidone and LPS), the “G-CSF release in PBMCs (FIG. 9)” value is given as “increased” and the “TNF-α release in PBMCs (FIG. 9)” value was “decreased”. Besides, in the data set with Human PBMCs [2], the “TLR-induced G-CSF release (FIG. 12, fold induction relative to TLR agonist alone)” value is “augmented”.
As to lipopolysaccharide [LPS], the “induction of expression of IL-2, IL-4, IL-5, IL-7, IL-12, IL-13, or IL-17” value with Human PBMCs [1] (human PBMCs stimulated with LPS) is on record as “did not induce”.
